Here are results for eight molecules from BindingDB's records for doi:10.1016/j.bmcl.2009.08.014 (Wuxi Pharmatech, 2009).

The assay is described as follows: Antagonist activity at CXCR2 expressed in CHO cells assessed as inhibition of IL-8-induced chemotaxis.
In general, IC50 refers to the concentration that gives 50% inhibition. Take `CCN(CC)Nc1c(Nc2cccc(C(=O)N(C)C)c2O)c(=O)c1=O` [3-(2-(2,2-diethylhydrazinyl)-3,4-dioxocyclobut-1-enylamino)-2-hydroxy-N,N-dimethylbenzamide]: the IC50 is 46 nM.

Take `CCN(Nc1c(Nc2cccc(C(=O)N(C)C)c2O)c(=O)c1=O)C(C)=O` [3-(2-(2-acetyl-2-ethylhydrazinyl)-3,4-dioxocyclobut-1-enylamino)-2-hydroxy-N,N-dimethylbenzamide]: the half-inhibitory concentration (IC50) turned out to be 1250 nM.

As to `CCN(Nc1c(Nc2cccc(C(=O)N(C)C)c2O)c(=O)c1=O)C(=O)c1ccc(F)cc1` [3-(2-(2-ethyl-2-(4-fluorobenzoyl)hydrazinyl)-3,4-dioxocyclobut-1-enylamino)-2-hydroxy-N,N-dimethylbenzamide], the IC50 stood at 840 nM.

As to `CCN(Cc1ccc(F)cc1)Nc1c(Nc2cccc(C(=O)N(C)C)c2O)c(=O)c1=O` [3-(2-(2-ethyl-2-(4-fluorobenzyl)hydrazinyl)-3,4-dioxocyclobut-1-enylamino)-2-hydroxy-N,N-dimethylbenzamide], the IC50 turned out to be 6340 nM.

Take `CCN(Nc1c(Nc2cccc(C(=O)N(C)C)c2O)c(=O)c1=O)c1ccc(F)cc1` [3-(2-(2-ethyl-2-(4-fluorophenyl)hydrazinyl)-3,4-dioxocyclobut-1-enylamino)-2-hydroxy-N,N-dimethylbenzamide]: the IC50 is 840 nM.

On to `CCN(Nc1c(Nc2cccc(C(=O)N(C)C)c2O)c(=O)c1=O)c1ccc(OC)cc1` [3-(2-(2-ethyl-2-(4-methoxyphenyl)hydrazinyl)-3,4-dioxocyclobut-1-enylamino)-2-hydroxy-N,N-dimethylbenzamide], for which the IC50 stood at 100 nM.

For `CCN(Nc1c(Nc2cccc(C(=O)N(C)C)c2O)c(=O)c1=O)c1ccccn1` [3-(2-(2-ethyl-2-(pyridin-2-yl)hydrazinyl)-3,4-dioxocyclobut-1-enylamino)-2-hydroxy-N,N-dimethylbenzamide], the IC50 amounted to 75 nM.

`CCN(Nc1c(Nc2cccc(C(=O)N(C)C)c2O)c(=O)c1=O)c1ccccc1` [3-(2-(2-ethyl-2-phenylhydrazinyl)-3,4-dioxocyclobut-1-enylamino)-2-hydroxy-N,N-dimethylbenzamide]: the IC50 worked out at 54 nM.
